These results are taken from BindingDB's records for doi:10.1021/jm950721m (Warner-Lambert, 1996).

Assay [1] in a line: Compound was evaluated for effective concentration […] for Dopamine receptor D2 mitogenesis. (95% confidence intervals).
The nature of assay [2]: Binding affinity to rat Dopamine receptor D3 expressed in CHO cells was determined using [125 I] iodosulpride as radioligand.

Regarding `Nc1cccc(C#CCCN2CC=C(c3ccccc3)CC2)c1` [3-[4-(4-Phenyl-3,6-dihydro-2H-pyridin-1-yl)-but-1-ynyl]-phenylamine], the EC50 in assay [1] turned out to be 9800 pM. This compound also yielded a Ki in assay [2] of 360 pM.

As for `Nc1ccc(C#CCCN2CC=C(c3ccccc3)CC2)cc1` [4-[4-(4-Phenyl-3,6-dihydro-2H-pyridin-1-yl)-but-1-ynyl]-phenylamine], in assay [1], the EC50 is 500 pM.

Broadly, the EC50 is the concentration at which the effect is half-maximal. The Ki is the equilibrium dissociation constant of an inhibitor or competing ligand from its target. Read a high Ki as a looser hold on the target.
